In patent US20250032465A1, “METHODS OF TREATING CNS DISORDERS” (HANGZHOU HIGHLIGHTLL PHARMACEUTICAL CO., LTD, priority 2021, published 2025):
Entries after “also recorded” stand apart in the source; their conditions may differ.

Legend:
HT22 cells = experiment: HT22 neuronal cell death induced by LPS activated BV2 microglia (transwell co-culture); assay type: cell-based; settings: 1.7 μM pre-treatment of BV2, LPS 200 ng/ml, 96 h
Procedure: This testing was performed to test the ability of compounds to alleviate the injury of HT22 cells induced by LPS activated BV2 cells. The testing was performed according to the following procedure: 1) Microglia BV2 cells were co-cultured on transwell inserts with HT22hippocampal neurons. BV2 cells were stimulated with LPS (200 ng/ml) for 96 h after treatment with a compound of Formula (II) at 1.7 μM. 2) HT22 cells were pre-treated with a compound of Formula (II) at 1.7 μM for 30 min and subsequently stimulated with LPS (200 ng/ml) for 96 h. 3) BV2 cells were treated using LPS. IL-6, TNF and MCP-1 productions were measured in cell supernatants using CBA assay.
The protective effects of a compound of Formula (II) on microglial activation-induced neuronal death were evaluated in a BV2 microglia/HT22 neuron co-culture. Following stimulation of BV2 microglia with LPS (200 ng/mL), there was a marked reduction in the viability of co-cultured HT22 cells.

MOG35-55-EAE model = experiment: MOG35-55 induced experimental autoimmune encephalomyelitis (MOG35-55-EAE) model; assay type: in vivo, female C57BL/6 mice
Description: MOG-EAE is one of the most common and widely used animal models for multiple sclerosis, which is a chronic inflammatory disease in the central nervous system that is characterized by axon demyelination and degeneration. In this mouse model, animals were immunized with myelin oligodendrocyte glycoprotein (MOG) peptide in Complete Freund's Adjuvant (CFA) firstly and then boosted with Pertussis Toxin. Upon immunization, mice developed chronic inflammation in the central nervous system, which led to axon dysfunction, and associated movement disabilities and paralysis. The disease onset usually starts from Day 10 and lasts for 20-30 days. This model allows specific investigation of the neuroinflammatory signaling pathways and evaluation of the efficacy of novel anti-inflammatory therapies. […] Mortality and observed clinical signs were recorded for individual animals in detail. Body weight and disease activity index (DAI) were measured twice per week after disease induction and then every other day starting from Day 10 to the study end. The DAI was scored according to the scoring criteria: 0=normal; 1=loss of tail tone; 2=loss of tail tone and hind limb weakness; 3=severe weakness in both limbs/single limb paralysis; 4=paralysis of two or more limbs; 5=death. […] The body weights and disease score were measured by using StudyDirector™ software (version 3.1.399.19). […]

For `Cc1nc2cnc3ccoc3c2n1[C@H]1CC[C@H](CC#N)OC1` [Formula (II)], the “Toxicity to HT22 cells (neuronal cell death) from LPS stimulation of BV2 microglia” value (HT22 cells) was “significantly reduced toxicity to HT22 cells; also recorded: reduced HT22 neuronal cell death”, the “Disease Activity Index (DAI)” value (MOG35-55-EAE model; 30 mg/kg BID oral gavage from Day 10, vs vehicle, Days 10-26) was “reduced disease activity; also recorded: lower DAI” and the Body weight loss (MOG35-55-EAE model; 30 mg/kg BID oral gavage, mice with EAE) was “significantly reduced body weight loss”.
